One compound from article PMC12541891 (MicrobiologyOpen, 2025) can be followed below.

The test system of assay [1] is ESBL-Ec biofilm. Put plainly: Biofilm metabolic activity by XTT-reduction assay. In kind it is cell-based, Escherichia coli. The conditions noted are these: substance alone at MIC. On the procedure: (§1) For all bacterial strains considered in the study, biofilm was performed on a 96‐well plate inoculated with 200 µL of a bacterial suspension 1 × 10^6 CFU/mL and incubated 24 h at 37°C. After incubation for 4 h at 37°C, the medium was aspirated, non‐adherent cells were removed, washed with PBS and added with 200 µL of fresh medium. […] Similarly, to perform fungal biofilm, the different Candida species were grown for 24 h at 28°C on a multi‐wells plate, washed twice with sterile PBS, and then resuspended at 37°C in RPMI 1640 plus 10% FBS at 2.5 × 10^7 cells. After incubation for 3 h at 37°C in six‐well polystyrene plates, the medium was aspirated, non‐adherent cells were removed and washed with PBS.
(§2) The biofilm metabolic activity was evaluated by XTT assay, that highpoints the activity through the reduction of the tetrazolium salt to formazan. After the removal of supernatant and washing with PBS, a solution of XTT‐menadione solution were added to wells. The XTT‐menadione was prepared dissolving XTT powder in prewarmed PBS (37°C) at 0.5 g/L. The solution was sterilized through a 0.22 μm pore size filter. Before each assay, the XTT solution was thawed and supplemented with menadione, a 10 mM stock dissolved in acetone to a final concentration 1 μM. Plates were incubated for 3 h at 37°C in the dark and then the absorbance was measured at 492 nm using the microplate reader, Tecan Sunrise.
A general note: Formazan colour is commonly taken as a measure of viable cells.

The test system of assay [2] is E. coli biofilm. Put plainly: Biofilm metabolic activity by XTT-reduction assay. In kind it is cell-based, Escherichia coli. The following applies: substance alone at MIC. On the procedure:
as §1, §2

For assay [3], the system named is C. krusei 44956. Put plainly: MIC and MFC by microbroth dilution. Type of assay: cell-based, Candida krusei. The following applies: Pichia kudriavzevii, 44956. On the procedure: (§3) No substance was added, in one well, for growth control. A bacterial suspension of 1 × 10^8 CFU/mL was inoculated into all wells of the plate and incubated for 24 h at 37°C. […] The dilutions ranged from 4 to 2000 µg/mL for the substances. The inoculum size was about 2.5×10^3 cells/mL. The plates were incubated at 28°C for 24–48 h. The MIC was determined as the lowest substances' concentration where no visible bacterial or fungal growth was observed. […] Each antimicrobial assay was performed in triplicate.
Background: In broth dilution the organism is exposed to a series of concentrations in liquid medium.

Assay [4] relates to C. tropicalis 45,615. Put plainly: MIC and MFC by microbroth dilution. In kind it is cell-based. The conditions noted are these: Candida tropicalis. The protocol:
as §3

Assay [5] concerns C. albicans AIDS 68. Put plainly: MIC and MFC by microbroth dilution. The following applies: Candida albicans, AIDS68. Type of assay: cell-based. On the procedure: as §3
Assay [6] concerns C. krusei biofilm. Put plainly: Biofilm metabolic activity by XTT-reduction assay. In kind it is cell-based, Candida krusei. On the procedure:
as §1, §2

Assay [7] deals with Extended Spectrum-Beta-Lactamase producing E. coli (ESBL-Ec). Put plainly: MIC and MBC by microbroth dilution. Type of assay: cell-based. The following applies: Escherichia coli. On the procedure: as §3
Assay [8] has as its system Escherichia coli MG1655 (ATCC 700926). Put plainly: MIC and MBC by microbroth dilution. Type of assay: cell-based. On the procedure: as §3
The subject of assay [9] is Staphylococcus aureus ATCC 6538. Put plainly: MIC and MBC by microbroth dilution. In kind it is cell-based. On the procedure:
as §3

Assay [10] deals with methicillin resistant S. aureus (MRSA). Put plainly: MIC and MBC by microbroth dilution. Type of assay: cell-based. The conditions noted are these: Staphylococcus aureus. On the procedure:
as §3

≈ marks a conversion by molar mass, not a printed value.

Regarding `Cc1ccc(C(C)C)cc1O` [Carvacrol, 2‐methyl‐5‐isopropyl phenol], the “Percentage of metabolic activity reduction” value in assay [1] (biofilm in formation (4 h)) is recorded as 57%; in [1] (preformed biofilm (24 h)), 22%; in assay [2] (biofilm in formation (4 h)), 62%; in assay [2] (preformed biofilm (24 h)), 28.5%; in [6] (biofilm in formation (3 h), substance alone at MIC) it was 89.4%; in assay [6] (biofilm in formation, sub-MIC concentrations alone or in combination (Table 5), listed as C), 30%. For the same compound, the “Percentage of metabolic activity reduction” value in assay [6] (preformed biofilm (24 h), substance alone at MIC) was found to be 89.4%; in [6] (preformed biofilm, sub-MIC concentrations alone or in combination (Table 5), listed as C), 25%. For the same compound, the MFC in assay [3], in [4] and in assay [5] was 500 µg/mL (≈ 3330 µM) each time. Further, the minimal inhibitory concentration (MIC) (as a rule, the lowest concentration found to suppress growth) in assay [3] stood at 500 µg/mL (≈ 3330 µM); in assay [4], 500 µg/mL (≈ 3330 µM); in assay [5] it was 250 µg/mL (≈ 1660 µM); in assay [7] (24 h), 125 µg/mL (≈ 832 µM); in assay [8] (24 h), 125 µg/mL (≈ 832 µM); in [9] (ATCC6538, 24 h) it was 125 µg/mL (≈ 832 µM). The compound further showed a minimum inhibitory concentration (MIC) in assay [10] (24 h) of 125 µg/mL (≈ 832 µM). The minimum bactericidal concentration (MBC) in assay [7], in [8], in assay [9] (ATCC6538) and in assay [10] was 125 µg/mL (≈ 832 µM) throughout.
